The values that follow come from patent US9555024B2, “Substituted (E)-N′-(1-phenylethylidene)benzohydrazide analogs as histone demethylase inhibitors” (University of Utah Research Foundation, priority 2011, dated 2017).

One assay addresses MAO B (Homo sapiens (Human), UniProt P27338). As to the kind of experiment: Monoamine Oxidase assay (MAO-Glo Assay Kit). Particulars: result in words.
For the next assay, the system named is T-47D cells. As to the kind of experiment: Cell Viability Assay (ATPlite). The assay is classed as cell-based. Particulars: Homo sapiens, T47D, 96-hours of incubation, read-out: Cell Growth, IC50. For orientation: In ATP-based viability assays light output follows the ATP content of the culture.
A further assay has as its system heme oxygenase (HMOX). As to the kind of experiment: Real-Time PCR of heme oxygenase (HMOX) expression in T-47D cells. The assay is classed as cell-based, human. Conditions: normalized to HPRT and β-actin.
In a further assay the target is MAO A (Homo sapiens (Human), UniProt P21397). Briefly: Monoamine Oxidase assay (MAO-Glo Assay Kit). Particulars: result in words.
Chain of MAO A (P21397 whole entry): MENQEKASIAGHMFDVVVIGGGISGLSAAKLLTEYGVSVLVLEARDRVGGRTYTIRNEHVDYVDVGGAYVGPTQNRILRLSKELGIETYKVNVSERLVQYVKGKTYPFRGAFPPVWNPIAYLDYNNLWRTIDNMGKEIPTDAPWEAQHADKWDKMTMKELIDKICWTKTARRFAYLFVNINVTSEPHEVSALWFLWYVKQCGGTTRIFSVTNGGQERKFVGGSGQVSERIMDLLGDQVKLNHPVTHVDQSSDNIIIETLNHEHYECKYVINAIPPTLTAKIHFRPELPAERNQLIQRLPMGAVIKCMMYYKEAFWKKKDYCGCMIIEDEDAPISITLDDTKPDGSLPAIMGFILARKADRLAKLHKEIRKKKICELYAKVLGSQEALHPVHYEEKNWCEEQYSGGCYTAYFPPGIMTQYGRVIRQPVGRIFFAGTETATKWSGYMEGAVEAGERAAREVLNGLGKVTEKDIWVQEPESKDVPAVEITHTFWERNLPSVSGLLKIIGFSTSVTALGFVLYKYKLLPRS

Chain of MAO B (P27338 whole entry): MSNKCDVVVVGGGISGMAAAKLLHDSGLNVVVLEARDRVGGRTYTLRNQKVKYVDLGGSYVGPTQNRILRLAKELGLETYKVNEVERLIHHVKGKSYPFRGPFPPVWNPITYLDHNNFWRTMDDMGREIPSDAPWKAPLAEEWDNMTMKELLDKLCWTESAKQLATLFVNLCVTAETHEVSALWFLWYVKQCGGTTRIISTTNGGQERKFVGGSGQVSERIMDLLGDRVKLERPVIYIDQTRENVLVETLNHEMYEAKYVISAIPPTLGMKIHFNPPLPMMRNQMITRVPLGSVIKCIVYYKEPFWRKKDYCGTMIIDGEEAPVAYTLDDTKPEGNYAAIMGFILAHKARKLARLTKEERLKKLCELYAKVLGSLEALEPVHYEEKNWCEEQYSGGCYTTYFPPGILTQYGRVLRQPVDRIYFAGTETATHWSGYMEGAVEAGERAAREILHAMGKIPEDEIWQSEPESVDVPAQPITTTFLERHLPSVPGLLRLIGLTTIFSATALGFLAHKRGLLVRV
Method for MAO A: Recombinant (expressed in baculovirus infected BTI insect cells) monoamine oxidase A and monoamine oxidase B (Catalog No. M7316 and M7441, respectively) were purchased from Sigma-Aldrich Co. LLC. […] MAO-Glo™ Assay Kit was purchased from Promega Corporation (Madison, Wis.).
Briefly, 6.25 μL of test compound was added to each well of a 384-well plate. Enzyme (either MAO A or B) was added (12.5 μL in 2× buffer containing 1 μg protein) and allowed to incubate for 5 minutes. Finally, 6.25 μL of 4×MAO substrate was added to each well. Following a one hour incubation, 25 μL of Luciferin detection reagent was added to each well, and incubated for 20 minutes. Luminescence was then measured on an Envision microplate reader.
IC50 values are determined using GraphPad Prism 5 software. The data were entered as an X-Y plot into the software as percent inhibition for each concentration of the drug. The concentration values of the drug were log transformed and the nonlinear regression was carried out using the “sigmoidal dose-response (variable slope)” option within the GraphPad software to model the data and calculate IC50 values.
Method for heme oxygenase (HMOX): Briefly, T-47D cells were seeded in 96-well plates and treated with concentrations of inhibitors as indicated. Cell lysates, Reverse transcription, and single color syber green realtime PCR was performed using the Cells-to-Ct kit (Life Technologies). Transcript levels of heme oxygenase (HMOX) were normalized to hypoxanthine phosphoribosyltransferase (HPRT) and β-actin.

On to `O=C(N/N=C/c1ccccc1O)c1ccc(O)cc1` [Compound 1], for which the “activity against MAO B” value on MAO B is “comparable activity to tranylcypromine”.

In the case of `C/C(=N\NC(=O)c1ccccc1)c1c(O)cccc1O` [Compound 14], in the assay on T-47D cells, the IC50 – broadly, the concentration that inhibits the measured activity by half – is over 10 µM. Besides, the “HMOX expression (fold-induction)” value in the assay on heme oxygenase (HMOX) turned out to be 1.1 fold-induction.

`N[C@@H]1CC1c1ccccc1` (some centres unmarked) [tranylcypromine, reference compound]: the “activity against MAO B” value at MAO B is on record as “exhibited activity”. For the same molecule, at MAO A, the “activity against MAO A” value is “exhibited activity”.
